From US20230181482A1, “LIPIDS FOR DELIVERY OF NUCLEIC ACID SEGMENTS” (AstraZeneca AB, priority 2021, published 2023)

Columns and labels:
[1] = LNP particle size by dynamic light scattering (Zetasizer Nano ZS); assay type: physicochemical
Experimental: (§1) A solution of eGFP mRNA (purchased from TriLink Biotechnologies) in citrate buffer was prepared by mixing mRNA dissolved in MilliQ-water, 100 mM citrate buffer (pH 3) and MilliQ-water to give a solution of 50 mM citrate. Lipid solution in ethanol (99.5%) was prepared with four different lipid components: ionizable lipid (see Table 1); cholesterol (Sigma-Aldrich); DSPC (distearoyl phosphatidyl choline, Avanti Polar Lipids Inc); and a polymer-conjugated lipid (see Table 1). The ratio of lipids in all experiments was ionizable lipid/cholesterol/DSPC/polymer-conjugated lipid (50/38.5/10/1.5 mol %). The total concentration of lipids in all experiments was 12.5 mM.
(§2) The mRNA and lipid solutions were mixed in a NanoAssemblr (Precision Nanosystems, Vancouver, BC, Canada) microfluidic mixing system at a mixing ratio of Aq:EtOH=3:1 and a constant flow rate of 12 mL/min. The mRNA in citrate buffer solution was prepared such that, at the time of mixing the ratio between the nitrogen atoms on the ionizable lipid and phosphorus atoms (N/P ratio) on the mRNA chain was either 3:1 or 6:1 (see Table 1).
The first 0.2-0.35 mL and the last 0.05-0.1 mL of the LNP suspension prepared were discarded while the rest of the volume was collected as the sample fraction. The size of the mRNA lipid nanoparticles was determined by dynamic light scattering measurements using a Zetasizer Nano ZS from Malvern Instruments Ltd, giving directly the z-average particle diameter. The number-weighted particle size distributions and averages were calculated using a particle refractive index of 1.45.

[2] = mRNA encapsulation efficiency of LNP formulations (Quant-it Ribogreen assay with Triton-X100); assay type: physicochemical
Experimental: as §1, §2
The final mRNA concentration and encapsulation efficiency percentage (% EE) was measured by Quant-it Ribogreen Assay Kit (ThermoFischer Scientific Inc.) using Triton-X100 to disrupt the LNPs. The mRNA encapsulation efficiency was determined according to the following equation: […]

[3] = tested on: Female BALB/c mice; assay: eGFP expression in the liver at 24 hours after intravenous administration of LNP formulations to mouse (ELISA); assay type: in vivo; settings: LNP N/P 3:1, DMPE-PEG2000
Description: Female BALB/c mice were purchased (SPF (Beijing) Laboratory Animal Technology Co. Ltd.) and on arrival were caged in groups of 4 on corncob bedding, with normal diet and were provided tap drinking water ad libitum that was purified and autoclaved before being offered to the animal. The environment was maintained at a target temperature of […] and relative humidity of 40-80%, with a 12-hour light/dark cycle. Animals were acclimatised to the housing conditions for at least 7 days prior to any experimental procedures and were approximately 6-8 weeks of age at the start of dosing
Animals were assigned to respective groups such that the mean body weights for each treatment groups will be equal. N=4 for each treatment group.
Formulations 1, 3, 4, 5, and 6 from Example 58 were each dosed intravenously: Each mouse was removed from its cage and restrained, and then dosed with a slow IV bolus of a formulation in the lateral tail vein at a dose […] of 0.3 mg/kg.
All animals were sacrificed 24 hours after dosing and flowing blood sampling the liver for the animals dosed by the IV route and the liver and muscle at the dose site for the IM dosed animals were harvested for eGFP analysis by ELISA.
Additional LNP formulations were prepared according to the procedures described in Example 46. These formulations were tested using the same protocol as described herein. The results of eGFP expression in the liver at 24 hours after intravenous administration of the formulations were summarized in Tables 3, 4, 5 and 6 below.

[4] = Table 1, number-average particle diameter, N/P ratio 3:1, DMPE-PEG2000
[5] = Table 1, z-average particle diameter, N/P ratio 3:1, DMPE-PEG2000
[6] = Table 1, LNP with eGFP mRNA, N/P ratio 3:1, DMPE-PEG2000
[7] = Table 3, N/P ratio 3:1, DMPE-PEG2000
[8] = Table 4, N/P ratio 3:1, DMPE-PEG2000
[9] = Table 5, N/P ratio 3:1, DMPE-PEG2000
[10] = Table 1, number-average particle diameter, N/P ratio 6:1, DMG-PEG2000
[11] = Table 1, z-average particle diameter, N/P ratio 6:1, DMG-PEG2000
[12] = Table 1, LNP with eGFP mRNA, N/P ratio 6:1, DMG-PEG2000

| <d>N (nm) [1, 7] | <d>Z (nm) [1, 7] | % EE [2, 7] | <d>N (nm) [1, 8] | <d>Z (nm) [1, 8] | % EE [2, 8] | Structure (SMILES) | Liver eGFP protein (ng/g tissue) ([3]; Table 3, 0.3 mg/kg) | Liver eGFP protein (ng/g tissue) ([3]; Table 4, 0.3 mg/kg) | also measured |
| --- | --- | --- | --- | --- | --- | --- | --- | --- | --- |
| – | – | – | – | – | – | CCCCCC(CCCCC)CCOC(=O)CCCCCCCC(CCCCCCCC(=O)OCCC(CCCCC)CCCCC)NC1CCOCC1 [Compound 2, bis(3-pentyloctyl) 9-[(oxan-4-yl)amino]heptadecanedioate] | – | – | <d>N (nm) [1, 4]: 58 nm; <d>Z (nm) [1, 5]: 73 nm; % EE [2, 6]: 96% |
| – | – | – | – | – | – | CCCCCC(CCCCC)CCOC(=O)CCCCCCCC(CCCCCCCC(=O)OCCC(CCCCC)CCCCC)NCC1CCOC1 (centres unmarked) [Compound 3, bis(3-pentyloctyl) 9-(((tetrahydrofuran-3-yl)methyl)amino)heptadecanedioate] | – | – | <d>N (nm) [1, 4]: 58 nm; <d>Z (nm) [1, 5]: 79 nm; % EE [2, 6]: 99% |
| – | – | – | – | – | – | CCCCCC(CCCCC)CCOC(=O)CCCCCCCC(CCCCCCCC(=O)OCCC(CCCCC)CCCCC)NCC1CCOCC1 [Compound 4, bis(3-pentyloctyl) 9-(((tetrahydro-2H-pyran-4-yl)methyl)amino)heptadecanedioate] | – | – | <d>N (nm) [1, 4]: 62 nm; <d>Z (nm) [1, 5]: 81 nm; % EE [2, 6]: 96% |
| – | – | – | – | – | – | CCCCCC(CCCCC)CCOC(=O)CCCCCCCC(CCCCCCCC(=O)OCCC(CCCCC)CCCCC)NCC1COC1 [Compound 5, bis(3-pentyloctyl) 9-((oxetan-3-ylmethyl)amino)heptadecanedioate] | – | – | <d>N (nm) [1, 4]: 54 nm; <d>Z (nm) [1, 5]: 70 nm; % EE [2, 6]: 99% |
| 59 nm | 77 nm | 87% | – | – | – | CCCCCC(CCCCC)CCOC(=O)CCCCCCCC(CCCCCCCC(=O)OCCC(CCCCC)CCCCC)NCC1CCCCO1 (centres unmarked) [Compound 6, bis(3-pentyloctyl) 9-(((tetrahydro-2H-pyran-2-yl)methyl)amino)heptadecanedioate] | 3621.3 ng/g tissue | – | – |
| 54 nm | 77 nm | 94% | – | – | – | CCCCCC(CCCCC)CCOC(=O)CCCCCCCC(CCCCCCCC(=O)OCCC(CCCCC)CCCCC)NCCC1CCOCC1 [Compound 7, bis(3-pentyloctyl) 9-((2-(tetrahydro-2H-pyran-4-yl)ethyl)amino)heptadecanedioate] | 6526.4 ng/g tissue | – | – |
| 61 nm | 76 nm | 95% | – | – | – | CCCCCC(CCCCC)CCOC(=O)CCCCCCCC(CCCCCCCC(=O)OCCC(CCCCC)CCCCC)NCC1CCCO1 (centres unmarked) [Compound 8, bis(3-pentyloctyl) 9-(((tetrahydrofuran-2-yl)methyl)amino)heptadecanedioate] | 6124.2 ng/g tissue | – | – |
| 61 nm | 81 nm | 93% | – | – | – | CCCCCC(CCCCC)CCOC(=O)CCCCCCCC(CCCCCCCC(=O)OCCC(CCCCC)CCCCC)NCC1COCCO1 (centres unmarked) [Compound 9, bis(3-pentyloctyl) 9-(((1,4-dioxan-2-yl)methyl)amino)heptadecanedioate] | 3160.9 ng/g tissue | – | – |
| 49 nm | 66 nm | 93% | – | – | – | CCCCCC(CCCCC)CCOC(=O)CCCCCC(CCCCCC(=O)OCCC(CCCCC)CCCCC)NC1CC2(COC2)C1 [Compound 13, bis(3-pentyloctyl) 7-((2-oxaspiro[3.3]heptan-6-yl)amino)tridecanedioate] | 8798.8 ng/g tissue | – | – |
| 61 nm | 77 nm | 95% | – | – | – | CCCCCC(CCCCC)CCOC(=O)CCCCCCCCC(CCCCCCCCC(=O)OCCC(CCCCC)CCCCC)NC1CC2(COC2)C1 [Compound 14, bis(3-pentyloctyl) 10-((2-oxaspiro[3.3]heptan-6-yl)amino)nonadecanedioate] | 8056.3 ng/g tissue | – | – |
| – | – | – | 72 nm | 89 nm | 97% | CCCCCC(CCCCC)CCOC(=O)CCCCCCCCC(CCCCCCCCC(=O)OCCC(CCCCC)CCCCC)NC1CCOCC1 [Compound 15, bis(3-pentyloctyl) 10-((tetrahydro-2H-pyran-4-yl)amino)nonadecanedioate] | – | 829.4 ng/g tissue | – |
| – | – | – | 61 nm | 78 nm | 91% | CCCCCC(CCCCC)CCOC(=O)CCCCCCCCC(CCCCCCCCC(=O)OCCC(CCCCC)CCCCC)NCC1CCCCO1 (centres unmarked) [Compound 16, bis(3-pentyloctyl) 10-(((tetrahydro-2H-pyran-2-yl)methyl)amino)nonadecanedioate] | – | 1393.4 ng/g tissue | – |
| – | – | – | 77 nm | 96 nm | 93% | CCCCCC(CCCCC)CCOC(=O)CCCCCCCCC(CCCCCCCCC(=O)OCCC(CCCCC)CCCCC)NCC1CCOCC1 [Compound 17, bis(3-pentyloctyl) 10-(((tetrahydro-2H-pyran-4-yl)methyl)amino)nonadecanedioate] | – | 6831.3 ng/g tissue | – |
| – | – | – | 67 nm | 86 nm | 97% | CCCCCC(CCCCC)CCOC(=O)CCCCCCCCC(CCCCCCCCC(=O)OCCC(CCCCC)CCCCC)NCC1COC1 [Compound 18, bis(3-pentyloctyl) 10-((oxetan-3-ylmethyl)amino)nonadecanedioate] | – | 6817.5 ng/g tissue | – |
| – | – | – | 57 nm | 75 nm | 92% | CCCCCCCCCOC(=O)CCCCCC(CCCCCC(=O)OC(CCCCCCCC)CCCCCCCC)NC1CC2(COC2)C1 (centres unmarked) [Compound 19, 1-(heptadecan-9-yl) 13-nonyl 7-((2-oxaspiro[3.3]heptan-6-yl)amino)tridecanedioate] | – | 9938.1 ng/g tissue | – |
| – | – | – | 53 nm | 67 nm | 97% | CCCCCCCCCOC(=O)CCCCCC(CCCCCC(=O)OC(CCCCCCCC)CCCCCCCC)NCC1COC1 (centres unmarked) [Compound 20, 1-(heptadecan-9-yl) 13-nonyl 7-((oxetan-3-ylmethyl)amino)tridecanedioate] | – | 9757.7 ng/g tissue | – |
| – | – | – | – | – | – | CCCCCCCCC(CCCCCCCC)OC(=O)CCCCCCCC(CCCCCCCC(=O)OCC(C)CCCCCCC)NCC1CCOC1 (centres unmarked) [Compound 21, 1-(heptadecan-9-yl) 17-(2-methylnonyl) 9-(((tetrahydrofuran-3-yl)methyl)amino)heptadecanedioate] | – | – | <d>N (nm) [1, 9]: 57 nm; <d>Z (nm) [1, 9]: 72 nm; % EE [2, 9]: 97%; Liver eGFP protein (ng/g tissue) ([3]; Table 5, 0.3 mg/kg): 4103.6 ng/g tissue |
| – | – | – | – | – | – | CCCCCCCCC(CCCCCCCC)OC(=O)CCCCCCCC(CCCCCCCC(=O)OCC(C)CCCCCCC)NC1CC2(COC2)C1 (centres unmarked) [Compound 22, 1-(heptadecan-9-yl) 17-(2-methylnonyl) 9-((2-oxaspiro[3.3]heptan-6-yl)amino)heptadecanedioate] | – | – | <d>N (nm) [1, 9]: 63 nm; <d>Z (nm) [1, 9]: 90 nm; % EE [2, 9]: 95%; Liver eGFP protein (ng/g tissue) ([3]; Table 5, 0.3 mg/kg): 4570.6 ng/g tissue |
| – | – | – | – | – | – | CCCCCCCCCOC(=O)CCCCCCCN(CCO)CCCCCCCC(=O)OC(CCCCCCCC)CCCCCCCC [MOD5, heptadecan-9-yl 8-((2-hydroxyethyl)(8-(nonyloxy)-8-oxooctyl)amino)octanoate, reference compound] | – | – | <d>N (nm) [1, 10]: 47 nm; <d>Z (nm) [1, 11]: 66 nm; % EE [2, 12]: 98% |
| – | – | – | – | – | – | CCCCCCCCCCCOC(=O)CCCCCN(CCO)CCCCCCCC(=O)OC(CCCCCCCC)CCCCCCCC [MOD8, heptadecan-9-yl 8-((2-hydroxyethyl)(6-oxo-6-(undecyloxy)hexyl)amino)octanoate, reference compound] | – | – | <d>N (nm) [1, 10]: 49 nm; <d>Z (nm) [1, 11]: 73 nm; % EE [2, 12]: 98% |
